Experimental data as given in patent publication US6338963B1, “Use of carbon monoxide dependent guanylyl cyclase modifiers to stimulate neuritogenesis” (NeoTherapeutics, Inc., priority 1994, dated 2002).

Key:
[1] = system: MAP kinases ERK1 (44 kDa) and ERK2 (42 kDa); assay: Western blot of phospho-ERK1/2 in cultured astrocytes; type: cell-based, rat; settings: for activation (phosphorylation) of MAP kinases ERK1 and ERK2: astrocyte cytosolic proteins
Description: In FIG. 60, the activation of MAP kinases ERK1 (44 kDa) and ERK2 (42 kDa) by guanosine is shown. Cultured astrocytes were harvested at 4° C. in lysis buffer specific for MAP kinase: 25 mM Tris buffer, pH 7.4, containing 150 mM NaCl, 100 μM sodium orthovanadate, 1.5 mM MgCl2, 1.0 mM EDTA, 1% NP40, 10% glycerol, 1 mM PMSF, 5 μg/ml leupeptin, and 10 μg/ml aprotinin and sonicated and centrifuged at 14,000 rpm for 5 min. Aliquots of the supernatants were processed for the assessment of protein concentration (M. M. Bradford, “A Rapid and Sensitive Method for the Quantitation of Microgram Quantities of Protein Using the Principle of Protein-Dye Binding,” Anal. Biochem. 72: 248-254 (1976)). Electrophoresis was performed in 12% SDS-PAGE, using 20 μg of total protein per lane and separated proteins were then transferred onto a PVDF membrane (Bio-Rad Laboratories, Italy). Membranes were first incubated with polyclonal primary antibody (rabbit phospho-ERK1/2 antibody, New England Biolabs, Germany; final dilution 1:1000) for 1 hour and then with donkey anti-rabbit HPR-conjugated secondary antibody (Amersham, Italy; final dilution 1:5000) for another 1 hour, both at room temperature. Immunocomplexes were visualized using the enhancing chemiluminescence detection system (ECL) (Amersham, Italy).
This activation was no longer evident after 10 minutes or 20 minutes of stimulation. […] This effect is likely independent of the activity of growth factors, such as NGF, that also act through this molecular pathway. Cultured astrocytes were harvested at 4° C. in lysis buffer specific for MAP kinase: 25 mM Tris buffer, pH 7.4, containing 150 mM NaCl, 100 μM sodium orthovanadate, 1.5 mM MgCl2, 1.0 mM EDTA, 1% NP40, 10% glycerol, 1 mM PMSF, 5 μg/ml leupeptin, and 10 μg/ml aprotirin and sonicated and centrifuged at 14,000 prm for 5 min. Aliquots of the supernatants were processed for the assessment of protein concentration (Bradford, 1976). […]

S100β protein = S100β protein release from rat cultured astrocytes (ELISA); type: cell-based; settings: for release of S100β protein from astrocytes: exposure for 24 hours
Description: The S100β protein was measured by using an ELISA as described in A. Aurell et al., “The S-100 Protein in Cerebrospinal Fluid: A Simple ELISA Method,” J.Neurol. Sci. 89: 157-164 (1989).
(§1) The NGF and S100β protein were measured by removing the cultured medium for the ELISA assays at each indicated time point.

TGFβ2 = assay: Western blot of astrocyte cytosolic proteins: TGFβ2; type: cell-based, rat
Description: Western blot analysis of cytosolic proteins from cultured astrocytes was performed to detect the factors NGF and TGFβ2. The results are shown in FIG. 58A for NGF at 6 and 12 hours and in FIG. 58B for TGFβ2 at 6 and 12 hours.
Western blot analysis of cytosolic proteins deriving from cultured astrocytes treated for 6 or 12 hours with 100 μM AIT-082 was performed. AIT-082 is able to promote the production of neurotrophic factors from rat cultured astrocytes as measured by Western blot analysis. The results are shown in FIG. 62A for NGF and in FIG. 62B for TGFβ2. Electrophoresis was performed in 12% (for NBF) or 15% (for TGFβ2) SDS-PAGE (20 μg of total protein per lane). The separated proteins were transferred onto a PVDF membrane (Bio-Rad Laboratories, Italy).

NGF = NGF release from rat cultured astrocytes (ELISA); type: cell-based; settings: for release of NGF from astrocytes: exposure for 24 hours
Description: The dose response for AIT-082 and guanosine on nerve growth factor and S100β protein release from rat culture astrocytes is shown in FIG. 30. NGF was assayed by a double-site ELISA, using a monoclonal anti-NGF antibody, coupled or not to β-galactosidase according to the method of I. D. Laviada et al., “Phosphatidylcholine-Phospholipase C Mediates the Induction of Nerve Growth Factor in Cultured Glial Cells,” FEBS Lett. 364: 301-304 (1995).
as §1
NGF and TGFβ2 levels were assayed in the culture medium of the astrocytes by specific ELISA assays using kits from Roche (Germany) and Promega (USA) respectively. NGF basal levels were 56.3±3.2 pg/ml. TGFβ2 levels were 9.1±0.06 pg/ml.
In FIG. 61, the dose-response curves of NGF and TGFβ2 release from rat cultured astrocytes as the result of exposure to AIT-082 are shown.

Compound	time of maximal activation of the enzyme cascade ([1]; AIT-082 100 μM, no longer evident after 10 or 20 minutes) [min]	activation (phosphorylation) of MAP kinases ERK1 and ERK2 [1]	time of peak release of S100β protein (S100β protein; AIT-082 100 μM)	release of S100β protein from astrocytes (S100β protein)	intracellular levels of TGFβ2 (TGFβ2; 100 μM AIT-082, 6 or 12 hours)	time after exposure at which release of NGF was enhanced (NGF; AIT-082 100 μM) [h]	time of maximum release of NGF (NGF; AIT-082 100 μM) [h]	release of NGF from astrocytes (NGF)	increase of NGF production as compared to a control (NGF; rat cultured astrocytes)	intracellular content of TGFβ2 (TGFβ2; guanosine, 6 and 12 hours)
O=C(CCn1cnc2c(=O)[nH]cnc21)Nc1ccc(C(=O)O)cc1 [AIT-082, N-4-carboxyphenyl-3-(6-oxohydropurin-9-yl)propanamide]	5	stimulated the phosphorylation of MAP kinases ERK1 (44 kDa) and ERK2 (42 kDa)	peaked within three hours	dose-dependent increase	increased in time-dependent manner	12	24	dose-dependent increase	about 2.5 fold	–
Nc1nc2c(ncn2[C@@H]2O[C@H](CO)[C@@H](O)[C@H]2O)c(=O)[nH]1 [guanosine]	–	activation	–	dose-dependent increase	–	–	–	dose-dependent increase	–	increased the intracellular content of NGF and TGFβ2 in time-dependent fashion
